The record followed here is US12310975B2, “Modulators of BCL6 proteolysis and associated methods of use” (Arvinas Operations, Inc., priority 2019, dated 2025).

The target of the experiment is BCL6 (Homo sapiens (Human), UniProt P41182). The experiment is described as follows: Immunofluorescence high content imaging of BCL6 degradation in T47D cells. The class given is cell-based. The following applies: for Dmax: T47D. The procedure, abridged:
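T47D cells were treated for 3 days at 37 °C with 11-point 3-fold dilutions of bifunctional degrader (final top 0.1 or 1 μM). BCL6 was detected by immunofluorescence after PFA fixation, with Hoechst and cell mask counterstains, and imaged at 10×, 4 fields/well.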

`CC(=O)COc1cc2cc(Nc3nc(N4CCC(N5CCC(Oc6ccc7c(c6)C(=O)N(C6CCC(=O)NC6=O)C7=O)C5)CC4)ncc3Cl)ccc2n(C)c1=O` (centres unmarked) [compound 177, 5-((1-(1-(5-chloro-4-((1-methyl-2-oxo-3-(2-oxopropoxy)-1,2-dihydroquinolin-6-yl)amino)pyrimidin-2-yl)piperidin-4-yl)pyrrolidin-3-yl)oxy)-2-(2,6-dioxopiperidin-3-yl)isoindoline-1,3-dione] registered an IC50 of at least 100 nM and a Dmax of under 50%.

Regarding `CC(=O)COc1cc2cc(Nc3nc(N4CCC(OC5CN(c6ccc7c(c6)C(=O)N(C6CCC(=O)NC6=O)C7=O)C5)CC4)ncc3Cl)ccc2n(C)c1=O` (centres unmarked) [compound 178, 5-(3-((1-(5-chloro-4-((1-methyl-2-oxo-3-(2-oxopropoxy)-1,2-dihydroquinolin-6-yl)amino)pyrimidin-2-yl)piperidin-4-yl)oxy)azetidin-1-yl)-2-(2,6-dioxopiperidin-3-yl)isoindoline-1,3-dione], the half-inhibitory concentration (IC50) was 10 to 50 nM and the greatest degradation seen (Dmax) was under 50%.

For the compound `CC(=O)COc1cc2cc(Nc3nc(N4CCOC(COc5ccc6c(c5)C(=O)N(C5CCC(=O)NC5=O)C6=O)C4)ncc3Cl)ccc2n(C)c1=O` (centres unmarked) [compound 179, 5-((4-(5-chloro-4-((1-methyl-2-oxo-3-(2-oxopropoxy)-1,2-dihydroquinolin-6-yl)amino)pyrimidin-2-yl)morpholin-2-yl)methoxy)-2-(2,6-dioxopiperidin-3-yl)isoindoline-1,3-dione], the concentration for half-maximal inhibition (IC50) was at least 100 nM and the Dmax was in the range of 50 to 70%.

`CC(=O)COc1cc2cc(Nc3nc(N4CCC(OCCOC5CCN(c6ccc7c(c6)C(=O)N(C6CCC(=O)NC6=O)C7=O)CC5)C4)ncc3Cl)ccc2n(C)c1=O` (centres unmarked) [compound 180, 5-(4-(2-((1-(5-chloro-4-((1-methyl-2-oxo-3-(2-oxopropoxy)-1,2-dihydroquinolin-6-yl)amino)pyrimidin-2-yl)pyrrolidin-3-yl)oxy)ethoxy)piperidin-1-yl)-2-(2,6-dioxopiperidin-3-yl)isoindoline-1,3-dione]: the 50% inhibitory concentration (IC50) is at least 100 nM.

In turn, `CC(=O)COc1cc2cc(Nc3nc(C#CC4CCCN(c5ccc6c(c5)C(=O)N(C5CCC(=O)NC5=O)C6=O)C4)ncc3Cl)ccc2n(C)c1=O` (centres unmarked) [compound 181, 5-(3-((5-chloro-4-((1-methyl-2-oxo-3-(2-oxopropoxy)-1,2-dihydroquinolin-6-yl)amino)pyrimidin-2-yl)ethynyl)piperidin-1-yl)-2-(2,6-dioxopiperidin-3-yl)isoindoline-1,3-dione] yielded a concentration for half-maximal inhibition (IC50) of at least 100 nM.

Take `CC(=O)COc1cc2cc(Nc3nc(N4CCC(N5CCCC5COc5ccc6c(c5)C(=O)N(C5CCC(=O)NC5=O)C6=O)CC4)ncc3Cl)ccc2n(C)c1=O` (centres unmarked) [compound 182, 5-((1-(1-(5-chloro-4-((1-methyl-2-oxo-3-(2-oxopropoxy)-1,2-dihydroquinolin-6-yl)amino)pyrimidin-2-yl)piperidin-4-yl)pyrrolidin-2-yl)methoxy)-2-(2,6-dioxopiperidin-3-yl)isoindoline-1,3-dione]: the IC50 is at least 100 nM and the Dmax was under 50%.

On to `CC(=O)COc1cc2cc(Nc3nc(N4CC(OC5CCN(c6ccc7c(c6)C(=O)N(C6CCC(=O)NC6=O)C7=O)CC5)C4)ncc3Cl)ccc2n(C)c1=O` (centres unmarked) [compound 183, 5-(4-((1-(5-chloro-4-((1-methyl-2-oxo-3-(2-oxopropoxy)-1,2-dihydroquinolin-6-yl)amino)pyrimidin-2-yl)azetidin-3-yl)oxy)piperidin-1-yl)-2-(2,6-dioxopiperidin-3-yl)isoindoline-1,3-dione], for which the IC50 lay within 10 to 50 nM and the maximal degradation (Dmax) was under 50%.

`CC(=O)COc1cc2cc(Nc3nc(C#CC4CCN(c5cccc6c5C(=O)N(C5CCC(=O)NC5=O)C6=O)CC4)ncc3Cl)ccc2n(C)c1=O` (centres unmarked) [compound 184, 4-(4-((5-chloro-4-((1-methyl-2-oxo-3-(2-oxopropoxy)-1,2-dihydroquinolin-6-yl)amino)pyrimidin-2-yl)ethynyl)piperidin-1-yl)-2-(2,6-dioxopiperidin-3-yl)isoindoline-1,3-dione] had an IC50 of 10 to 50 nM and a Dmax of 50 to 70%.

For the compound `CNC(=O)COc1cc2cc(Nc3nc(N4CCN(C)CC4)ncc3Cl)ccc2n(CCCCOc2ccc3c(c2)C(=O)N(C2CCC(=O)NC2=O)C3=O)c1=O` (centres unmarked) [compound 238, 2-((6-((5-chloro-2-(4-methylpiperazin-1-yl)pyrimidin-4-yl)amino)-1-(4-((2-(2,6-dioxopiperidin-3-yl)-1,3-dioxoisoindolin-5-yl)oxy)butyl)-2-oxo-1,2-dihydroquinolin-3-yl)oxy)-N-methylacetamide], the IC50 is at least 100 nM and the Dmax is under 50%.

In turn, `CNC(=O)Cc1cc2cc(Nc3nc(N4CCC(CN5CCN(c6ccc7c(c6)C(=O)N(C6CCC(=O)NC6=O)C7=O)CC5)CC4)ncc3Cl)ccc2n(C)c1=O` (centres unmarked) [compound 239, 2-(6-((5-chloro-2-(4-((4-(2-(2,6-dioxopiperidin-3-yl)-1,3-dioxoisoindolin-5-yl)piperazin-1-yl)methyl)piperidin-1-yl)pyrimidin-4-yl)amino)-1-methyl-2-oxo-1,2-dihydroquinolin-3-yl)-N-methylacetamide] registered an IC50 of at least 100 nM.

With `CNC(=O)COc1cc2cc(Nc3nc(N4CCN(CC5(O)CCN(c6ccc7c(c6)C(=O)N(C6CCC(=O)NC6=O)C7=O)CC5)CC4)ncc3Cl)ccc2n(C)c1=O` (centres unmarked) [compound 240, 2-((6-((5-chloro-2-(4-((1-(2-(2,6-dioxopiperidin-3-yl)-1,3-dioxoisoindolin-5-yl)-4-hydroxypiperidin-4-yl)methyl)piperazin-1-yl)pyrimidin-4-yl)amino)-1-methyl-2-oxo-1,2-dihydroquinolin-3-yl)oxy)-N-methylacetamide], the IC50 fell in the range of 10 to 50 nM and the Dmax lay within 50 to 70%.

The compound `CNC(=O)COc1cc2cc(Nc3nc(N4CCCC(OC5CCN(c6ccc7c(c6)C(=O)N(C6CCC(=O)NC6=O)C7=O)CC5)CC4)ncc3Cl)ccc2n(C)c1=O` (centres unmarked) [compound 241, 2-((6-((5-chloro-2-(4-((1-(2-(2,6-dioxopiperidin-3-yl)-1,3-dioxoisoindolin-5-yl)piperidin-4-yl)oxy)azepan-1-yl)pyrimidin-4-yl)amino)-1-methyl-2-oxo-1,2-dihydroquinolin-3-yl)oxy)-N-methylacetamide] had a concentration for half-maximal inhibition (IC50) of 10 to 50 nM and a Dmax of under 50%.

Consider `CNC(=O)COc1cc2cc(Nc3nc(N4CCC(OC5CCCN(c6ccc7c(c6)C(=O)N(C6CCC(=O)NC6=O)C7=O)CC5)CC4)ncc3Cl)ccc2n(C)c1=O` (centres unmarked) [compound 242, 2-((6-((5-chloro-2-(4-((1-(2-(2,6-dioxopiperidin-3-yl)-1,3-dioxoisoindolin-5-yl)azepan-4-yl)oxy)piperidin-1-yl)pyrimidin-4-yl)amino)-1-methyl-2-oxo-1,2-dihydroquinolin-3-yl)oxy)-N-methylacetamide], for which the 50% inhibitory concentration (IC50) is at least 100 nM.

Turning to `CNC(=O)COc1cc2cc(Nc3nc(N4CCN(CC5CCN(c6ccc(C(=O)NC7CCC(=O)NC7=O)c(OC)c6)CC5)CC4)ncc3Cl)ccc2n(C)c1=O` (centres unmarked) [compound 243, 4-(4-((4-(5-chloro-4-((1-methyl-3-(2-(methylamino)-2-oxoethoxy)-2-oxo-1,2-dihydroquinolin-6-yl)amino)pyrimidin-2-yl)piperazin-1-yl)methyl)piperidin-1-yl)-N-(2,6-dioxopiperidin-3-yl)-2-methoxybenzamide], the IC50 is under 10 nM and the maximal degradation (Dmax) is at least 70%.

In the case of `CNC(=O)COc1cc2cc(Nc3nc(N4CCN(C)CC4)ncc3Cl)ccc2n(CCCOc2ccc3c(c2)C(=O)N(C2CCC(=O)NC2=O)C3=O)c1=O` (centres unmarked) [compound 244, 2-((6-((5-chloro-2-(4-methylpiperazin-1-yl)pyrimidin-4-yl)amino)-1-(3-((2-(2,6-dioxopiperidin-3-yl)-1,3-dioxoisoindolin-5-yl)oxy)propyl)-2-oxo-1,2-dihydroquinolin-3-yl)oxy)-N-methylacetamide], the IC50 was at least 100 nM and the Dmax is at least 70%.

`CNC(=O)COc1cc2cc(Nc3nc(N4CCN(CC5CN(c6ccc7c(c6)C(=O)N(C6CCC(=O)NC6=O)C7=O)C5)CC4)ncc3Cl)ccc2n(C)c1=O` (centres unmarked) [compound 246, 2-((6-((5-chloro-2-(4-((1-(2-(2,6-dioxopiperidin-3-yl)-1,3-dioxoisoindolin-5-yl)azetidin-3-yl)methyl)piperazin-1-yl)pyrimidin-4-yl)amino)-1-methyl-2-oxo-1,2-dihydroquinolin-3-yl)oxy)-N-methylacetamide] yielded a half-maximal inhibitory concentration (IC50) of under 10 nM and a maximal degradation (Dmax) of at least 70%.

Consider `CNC(=O)COc1cc2cc(Nc3nc(N4CCC(CCOC5CN(c6ccc7c(c6)C(=O)N(C6CCC(=O)NC6=O)C7=O)C5)CC4)ncc3Cl)ccc2n(C)c1=O` (centres unmarked) [compound 247, 2-((6-((5-chloro-2-(4-(2-((1-(2-(2,6-dioxopiperidin-3-yl)-1,3-dioxoisoindolin-5-yl)azetidin-3-yl)oxy)ethyl)piperidin-1-yl)pyrimidin-4-yl)amino)-1-methyl-2-oxo-1,2-dihydroquinolin-3-yl)oxy)-N-methylacetamide], for which the IC50 was under 10 nM and the Dmax lay in the range of 50 to 70%.

For `CNC(=O)COc1cc2cc(Nc3nc(N4CCC(CN5CC6(C5)CN(c5ccc7c(c5)C(=O)N(C5CCC(=O)NC5=O)C7=O)C6)CC4)ncc3Cl)ccc2n(C)c1=O` (centres unmarked) [compound 248, 2-((6-((5-chloro-2-(4-((6-(2-(2,6-dioxopiperidin-3-yl)-1,3-dioxoisoindolin-5-yl)-2,6-diazaspiro[3.3]heptan-2-yl)methyl)piperidin-1-yl)pyrimidin-4-yl)amino)-1-methyl-2-oxo-1,2-dihydroquinolin-3-yl)oxy)-N-methylacetamide], the IC50 was at least 100 nM.

`Cn1c(=O)c(N2CCC2=O)cc2cc(Nc3nc(N4CCN(CC5CCN(c6ccc7c(c6)C(=O)N(C6CCC(=O)NC6=O)C7=O)CC5)CC4)ncc3Cl)ccc21` (centres unmarked) [compound 249, 5-(4-((4-(5-chloro-4-((1-methyl-2-oxo-3-(2-oxoazetidin-1-yl)-1,2-dihydroquinolin-6-yl)amino)pyrimidin-2-yl)piperazin-1-yl)methyl)piperidin-1-yl)-2-(2,6-dioxopiperidin-3-yl)isoindoline-1,3-dione] registered an IC50 of at least 100 nM.

As usually defined, the IC50 is the midpoint of a concentration-inhibition curve. Read a high IC50 as a need for much substance. The Dmax is the largest share of the target that was removed. Lower therefore signals shallow degradation.
